Laboratory results from patent publication US5233036A, “Rapamycin alkoxyesters” (American Home Products Corporation, priority 1992, dated 1993).
Converted amounts (≈) assume the structure as drawn. Where two headings read alike, the source gives them in different places.

Assays:
[1] = test system: thymocyte proliferation; test: Comitogen-induced thymocyte proliferation procedure (LAF); format: cell-based, BALB/c mice; settings: for LAF (ratio): ratio relative to rapamycin (rapamycin 1.0), 72 h culture, PHA and IL-1
Procedure: (§1) Immunosuppressive activity was evaluated in an in vitro standard pharmacological test procedure to measure lymphocyte proliferation (LAF) and in two in vivo standard pharmacological test procedures. The first in vivo procedure was a popliteal lymph node (PLN) test procedure which measured the effect of compounds of this invention on a mixed lymphocyte reaction and the second in vivo procedure evaluated the survival time of a pinch skin graft.
Briefly, cells from the thymus of normal BALB/c mice are cultured for 72 hours with PHA and IL-1 and pulsed with tritiated thymidine during the last six hours. […] Cells are harvested and incorporated; radioactivity is determined. Inhibition of lymphoproliferation is assessed in percent change in counts per minute from non-drug treated controls. The results are expressed by the following ratio, or as the percent inhibition of lymphoproliferation of 1 μM. [formula]

[2] = test system: pinch skin graft; test: Survival time of pinch skin graft; format: in vivo, male DBA/2 donors transplanted to male BALB/c recipients; settings: intraperitoneal; mean ± S.D.
Procedure: as §1
The second in vivo test procedure is designed to determine the survival time of pinch skin graft from male DBA/2 donors transplanted to male BALB/c recipients. The method is adapted from Billingham R. E. and Medawar P. B., J. Exp. Biol. 28:385-402, (1951). Briefly, a pinch skin graft from the donor is grafted on the dorsum of the recipient as a homograft, and an autograft is used as control in the same region. […] Untreated recipients serve as rejection control. The graft is monitored daily and observations are recorded until the graft becomes dry and forms a blackened scab. This is considered as the rejection day. The mean graft survival time (number of days±S.D.) of the drug treatment group is compared with the control group.

[3] = test system: Candida albicans; test: Plate test procedure for measurement of inhibition (antifungal activity); format: cell-based
Procedure: The following represents the typical procedure used. Compound to be tested was placed on sterile dried 1/4" plate disks, and allowed to dry. Agar plates were seeded with fungi and allowed to solidify. The impregnated disks were placed on the seeded Agar surface and incubated for the time required for the particular culture. Results are expressed in MIC (μg/ml) to inhibit growth.

[4] = test system: mixed lymphocyte reaction; test: Popliteal lymph node (PLN) test procedure (mixed lymphocyte reaction in vivo); parameters: species or system C3H mice (recipient), BALB/c donors; settings: ratio relative to rapamycin (rapamycin 1.0); drug daily p.o. Day 0 to Day 4
Procedure: as §1
A mixed lymphocyte reaction (MLR) occurs when lymphoid cells from genetically distinct animals are combined in tissue culture. Each stimulates the other to undergo blast transformation which results in increased DNA synthesis that can be quantified by the incorporation of tritiated thymidine. Since stimulating a MLR is a function of disparity at Major Histocompatibility antigens, as in vivo popliteal lymph node (PLN) test procedure closely correlates to host vs. graft disease. Briefly, irradiated spleen cells from BALB/c donors are injected into the right hind foot pad of recipient C3H mice. The drug is given daily, p.o. from Day 0 to Day 4. On Day 3 and Day 4, tritiated thymidine is given i.p., b.i.d.. On Day 5, the hind popliteal lymph nodes are removed and dissolved, and radioactivity counted. […] Percent suppression is calculated using the non-drug treated animals as allogenic control. […]

[5] = test system: Candida albicans; settings: particularly against Candida albicans, both in vitro and in vivo; cited from earlier work
[6] = alone or in combination with picibanil; cited from earlier work
[7] = test system: experimental allergic encephalomyelitis; settings: model for multiple sclerosis; cited from earlier work
[8] = ATCC38246, strain ATCC 38246, read-out: MIC
[9] = ATCC38247, strain ATCC 38247, read-out: MIC
[10] = ATCC38248, strain ATCC 38248, read-out: MIC

Row | SMILES | suppression of T-cell proliferation (LAF), in words [1] | LAF (ratio) [1] | Skin graft survival time (days + SD) [2] | MIC ([3]; ATCC10231) | MIC [3, 8] | MIC [3, 9] | MIC [3, 10] | MIC ([3]; strain 3669, read-out: MIC) | MIC ([3]; ATCC10231, strain ATCC 10231, read-out: MIC) | PLN (ratio) [4] | antifungal activity [5] | antitumor activity [6] | effectiveness in experimental allergic encephalomyelitis model [7]
1 | CCOC(=O)CO[C@@H]1CC[C@@H](C[C@@H](C)[C@@H]2CC(=O)[C@H](C)/C=C(\C)[C@@H](O)[C@@H](OC)C(=O)[C@H](C)C[C@H](C)/C=C/C=C/C=C(\C)[C@@H](OC)C[C@@H]3CC[C@@H](C)[C@@](O)(O3)C(=O)C(=O)N3CCCC[C@H]3C(=O)O2)C[C@H]1OC [Example 1, 42-Deoxy-42-(2-ethoxy-2-oxoethoxy)rapamycin] | suppressed T-cell proliferation | 0.46 | 7.5 ± 1.2 days | 0.5 µg/mL (≈ 0.5 µM) | 0.1 µg/mL (≈ 0.1 µM) | 0.2 µg/mL (≈ 0.2 µM) | 0.1 µg/mL (≈ 0.1 µM) | 0.05 µg/mL (≈ 0.05 µM) |  |  |  |  | 
2 | CO[C@H]1C[C@@H]2CC[C@@H](C)[C@@](O)(O2)C(=O)C(=O)N2CCCC[C@H]2C(=O)O[C@H]([C@H](C)C[C@@H]2CC[C@@H](OCC(=O)OC(C)(C)C)[C@H](OC)C2)CC(=O)[C@H](C)/C=C(\C)[C@@H](O)[C@@H](OC)C(=O)[C@H](C)C[C@H](C)/C=C/C=C/C=C/1C [Example 2, 42-Deoxy-42-[2-(1,1-dimethylethoxy)-2-oxoethoxy]rapamycin] | suppressed T-cell proliferation | 0.27 |  |  | 0.2 µg/mL (≈ 0.194 µM) | 0.05 µg/mL (≈ 0.0486 µM) | 0.1 µg/mL (≈ 0.0972 µM) | 0.2 µg/mL (≈ 0.194 µM) | 0.05 µg/mL (≈ 0.0486 µM) |  |  |  | 
3 | CO[C@H]1C[C@@H]2CC[C@@H](C)[C@@](O)(O2)C(=O)C(=O)N2CCCC[C@H]2C(=O)O[C@H]([C@H](C)C[C@@H]2CC[C@@H](O)[C@H](OC)C2)CC(=O)[C@H](C)/C=C(\C)[C@@H](O)[C@@H](OC)C(=O)[C@H](C)C[C@H](C)/C=C/C=C/C=C/1C [Rapamycin, rapamycin] |  |  |  |  |  |  |  |  |  | 1.0 | found to have antifungal activity | shown to have antitumor activity | effective in the experimental allergic encephalomyelitis model
